Results reported in PubChem BioAssay (NCI).
Several values for one entry are separate records, joined by “and”; a condition that tells them apart may be missing. Identical values can stand only once.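 96-well plates; 48 h exposure; 5 concentrations. Endpoints by linear interpolation between flanking doses. Not reached: highest tested concentration assigned. GI50 is the concentration that inhibits growth by half. TGI marks complete inhibition of growth.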

Tests used:
Assay in all cases: growth of human tumour cells (NCI), 48 h
MDA-N = system: MDA-N
TK-10 renal = system: TK-10 renal
MOLT-4 leukemia = system: MOLT-4 leukemia
SF-539 CNS = system: SF-539 CNS
SNB-75 CNS = system: SNB-75 CNS
NCI/ADR-RES ovarian = system: NCI/ADR-RES ovarian
HOP-92 NSCLC = system: HOP-92 NSCLC
LOX IMVI melanoma = system: LOX IMVI melanoma
HOP-62 NSCLC = system: HOP-62 NSCLC
DMS 273 small cell lung = system: DMS 273 small cell lung
M19-MEL melanoma = system: M19-MEL melanoma
LXFL 529 NSCLC = system: LXFL 529 NSCLC

SMILES	TGI (MDA-N)	TGI (TK-10 renal)	TGI (MOLT-4 leukemia)	TGI (SF-539 CNS)	TGI (SNB-75 CNS)	TGI (NCI/ADR-RES ovarian)	TGI (HOP-92 NSCLC)	TGI (LOX IMVI melanoma)	TGI (HOP-62 NSCLC)	TGI (DMS 273 small cell lung)	TGI (M19-MEL melanoma)	TGI (LXFL 529 NSCLC)	GI50 (MOLT-4 leukemia)	GI50 (SF-539 CNS)
Cn1c(=O)c2c(nc3[nH]c(=O)c(Br)cn32)n(C)c1=O	> 100 µM	> 100 µM	> 100 µM	> 100 µM	> 100 µM	> 100 µM	> 100 µM	> 100 µM	> 100 µM					
C=CCC(O[Si](C)(C)C(C)(C)C)c1cc(O[Si](C)(C)C(C)(C)C)ccc1OC (stereo unspecified)			> 100 µM	> 100 µM	> 100 µM	> 100 µM	86.6 µM	> 100 µM	> 100 µM	> 100 µM				
C[n+]1cccc2ccc3cccnc3c21	> 100 µM	> 100 µM	> 100 µM	> 100 µM	65.1 µM	> 100 µM	> 100 µM	> 100 µM	75 µM					
O=[N+]([O-])c1ccc(-n2nc3ccc4nonc4c3n2)cc1	> 100 µM	39.9 µM	> 100 µM	> 100 µM	30.8 µM	> 100 µM	65 µM	> 100 µM	44.7 µM					
Cc1nnc2n1N=C(c1ccccc1)C(c1ccccc1)S2 (stereo unspecified)		> 100 µM	> 100 µM	72.4 µM	79.7 µM		> 100 µM	> 100 µM	> 100 µM	> 100 µM	> 100 µM	> 100 µM		
NC(=O)CCC(N=c1c2ccccc2n(O)c2ccccc12)C(=O)O (stereo unspecified)		> 100 µM	> 100 µM		> 100 µM			> 100 µM	> 100 µM	> 100 µM	> 100 µM	> 100 µM		
COC(=O)c1c2c(cc3c1CC1(Cc4cc5c(c(C=O)c4C1)CCC5)C3)CCC2 (stereo unspecified)	> 100 µM	> 100 µM	59.1 µM	> 100 µM	> 100 µM	> 100 µM	60.7 µM	56.5 µM	> 100 µM					
COP(=O)(OC)OCN(C)CC/C=C(\C)CC/C=C(\C)CCC=C(C)C	29.3 µM	21.9 µM	28.9 µM	30.3 µM	28 µM	30.5 µM	34.8 µM	29.3 µM	29.7 µM					
COC(=O)C1OC(O[C@H]2CC[C@]3(C)[C@H]4CC=C5[C@@H]6CC(C)(C)CC[C@]6(C(=O)OC6OCC(O)C(O)C6OC6OC(C)C(OC7OCC(O)C(O)C7O)C(O)C6O)[C@H](O)C[C@@]5(C)[C@]4(C)CC[C@H]3C2(C)C)C(O)C(O)C1O (stereo partly specified)	3.77 µM and 12.1 µM	21.3 µM and 21.5 µM	> 100 µM	> 100 µM and 37.5 µM	18.5 µM and 20.9 µM	22.5 µM and 12.3 µM	5.2 µM and 8.4 µM	19.6 µM and 14.5 µM	17.8 µM and 22.9 µM				> 42.6 µM and 14.2 µM	> 100 µM and 19 µM
CC1OC(OC2C(O[C@H]3CC[C@@]4(C)C(=CC[C@H]5[C@@H]6C[C@@H]7O[C@]8(CC[C@@H](C)CO8)[C@@H](C)[C@@H]7[C@@]6(C)CC[C@@H]54)C3)OC(CO)C(O)C2OC2OC(CO)C(O)C(O)C2O)C(O)C(O)C1O (stereo partly specified)	3.17 µM	4.01 µM	> 23.3 µM	5.23 µM	3.7 µM	4.93 µM	3.68 µM	5.9 µM	4.21 µM					
C=C(Br)CN=CN(C)C	> 100 µM	> 100 µM	> 100 µM	> 100 µM	> 100 µM	> 100 µM	> 100 µM	> 100 µM	> 100 µM					
ClC1=NN=C(c2c[nH]c3ccccc23)CC1NCc1ccccc1 (stereo unspecified)	> 100 µM	> 100 µM	> 100 µM	> 100 µM	> 100 µM	> 100 µM	> 100 µM	> 100 µM	> 100 µM					
COC1(CC[C@@H](C)COC2OC(CO)C(O)C(O)C2O)OC2C[C@H]3[C@@H]4CC[C@H]5C[C@@H](OC6OC(CO)C(OC7OC(CO)C(O)C(O)C7O)C(O)C6OC6OC(C)C(O)C(O)C6O)[C@H](O)C[C@]5(C)[C@H]4CC[C@]3(C)C2[C@@H]1C (stereo partly specified)	4.55 µM	3.82 µM	8.14 µM	3.34 µM	3.49 µM	> 20.6 µM	12.8 µM	3.22 µM	3.69 µM					
CC1=C(CO)C(=O)OC(C(C)C2CCC3C4CC5OC56C(O)C(N5CC5)=CC(=O)C6(C)C4CCC23C)C1 (stereo unspecified)		22 µM	8.52 µM	14 µM	18.6 µM		19.3 µM	31.1 µM	40.7 µM	17.9 µM	23.5 µM	15.9 µM		
N#Cc1ccccc1NC(=O)C(=O)C(C(=O)c1ccccc1F)C1OC(=O)c2ccccc21 (stereo unspecified)		> 100 µM	> 100 µM	82.9 µM	> 100 µM		> 100 µM	> 100 µM	> 100 µM	> 100 µM	> 100 µM	> 100 µM		
CCCCCC[C@H]([C@H](C)O)n1cnc2c(N)ncnc21	> 100 µM	> 100 µM	> 100 µM	> 100 µM	> 100 µM	> 100 µM	> 100 µM	> 100 µM	> 100 µM					
O=S(=O)(Nc1nc2ccccc2nc1N1CCCCCC1)c1ccccc1	> 100 µM	40 µM	44.2 µM	95.7 µM	86.1 µM	> 100 µM	37.4 µM	> 100 µM	84.5 µM					
